In the NIST ThermoML archive (doi:10.1021/je0501639):
Values joined by “and” are separate entries in the source; they are usually repeats but may differ in a detail not shown here. Equal values may be shown once.

Experiments:
[1] = refractive index (Na D-line) (dimensionless); xn = mol fraction of the nth substance listed; settings: 100.8 kPa, Liquid, Standard Abbe refractometry
[2] = xn = mol fraction of the nth substance listed; settings: 100.8 kPa, Liquid
[3] = refractive index (Na D-line) (dimensionless); settings: 101.33 kPa, Liquid, Standard Abbe refractometry
[4] = 100.8 kPa, Liquid

CCO [ethanol] + CC(C)CC(C)(C)C
x1 = 1
Settings	mass density, 298.15 K [kg/m3]	mass density, 308.15 K [kg/m3]	mass density, 318.15 K [kg/m3]	refractive index, 298.15 K	refractive index, 308.15 K	refractive index, 318.15 K	viscosity, 298.15 K [mPa·s]	viscosity, 308.15 K [mPa·s]	viscosity, 318.15 K [mPa·s]
[1]	–	–	–	1.35932	1.35509	1.35095	–	–	–
[2]	785.1	776.43	767.61	–	–	–	1.085	0.906	0.756

CC(C)(C)O [2-methylpropan-2-ol]
Settings	mass density, 298.15 K [kg/m3]	mass density, 308.15 K [kg/m3]	mass density, 318.15 K [kg/m3]	refractive index, 298.15 K	refractive index, 308.15 K	refractive index, 318.15 K
[3]	–	–	–	1.38481	1.3796	1.37416
[4]	780.99	770.7	760.05	–	–	–

[4], Falling or rolling sphere viscometry
Settings	viscosity [mPa·s]
298.15 K	4.43
308.15 K	2.622
318.15 K	1.708

CC(C)CC(C)(C)C [2,2,4-trimethylpentane] + CC(C)(C)O
x2 = 0
Settings	mass density, 298.15 K [kg/m3]	mass density, 308.15 K [kg/m3]	mass density, 318.15 K [kg/m3]	refractive index, 298.15 K	refractive index, 308.15 K	refractive index, 318.15 K	viscosity, 298.15 K [mPa·s]	viscosity, 308.15 K [mPa·s]	viscosity, 318.15 K [mPa·s]
[1]	–	–	–	1.38898	1.38398	1.37898	–	–	–
[2]	687.89	679.55	671.1	–	–	–	0.475	0.425	0.38

CC(C)CC(C)(C)C [2,2,4-trimethylpentane]
Settings	mass density, 298.15 K [kg/m3]	mass density, 308.15 K [kg/m3]	mass density, 318.15 K [kg/m3]	refractive index, 298.15 K	refractive index, 308.15 K	refractive index, 318.15 K	viscosity, 298.15 K	viscosity, 308.15 K [mPa·s]	viscosity, 318.15 K [mPa·s]
[3]	–	–	–	1.38898	1.38398	1.37898	–	–	–
[4]	687.89	679.55	671.1	–	–	–	0.474 mPa·s and 0.475 mPa·s	0.425	0.38

CCO [ethanol] + CC(C)(C)O
x1 = 1
Settings	mass density, 298.15 K [kg/m3]	mass density, 308.15 K [kg/m3]	mass density, 318.15 K [kg/m3]	refractive index, 298.15 K	refractive index, 308.15 K	refractive index, 318.15 K
[1]	–	–	–	1.35932	1.35509	1.351
[2]	785.1	776.43	767.61	–	–	–

[2], Falling or rolling sphere viscometry, x1 = 1
Settings	viscosity [mPa·s]
298.15 K	1.085
308.15 K	0.906
318.15 K	0.756

CCO [ethanol]
Settings	mass density, 298.15 K [kg/m3]	mass density, 308.15 K [kg/m3]	mass density, 318.15 K [kg/m3]	refractive index, 298.15 K	refractive index, 308.15 K	refractive index, 318.15 K
[3]	–	–	–	1.35932	1.35509	1.351 and 1.35095
[4]	785.1	776.43	767.61	–	–	–

[4], Falling or rolling sphere viscometry
Settings	viscosity [mPa·s]
298.15 K	1.085
308.15 K	0.906
318.15 K	0.756
